These results are taken from patent US9447408B2, “Method of efficiently establishing induced pluripotent stem cells” (Kyoto University, priority 2010, dated 2016).

Test [1] deals with Human dermal fibroblasts (Tig109 line). The test is described as follows: Human iPS cell colony formation, 3 genes introduced, various p38 inhibitors. Conditions: 10 μM inhibitor. Type of test: cell-based. The procedure: Human dermal fibroblasts (Tig109 line) were treated using a lentivirus (pLenti6/UbC-Slc7a1) according to the method described by Takahashi, K. et al. in Cell, 131: 861-872 (2007), to express the mouse ecotropic virus receptor Slc7a1 gene. These cells (2×10^5 cells/10 cm dish) were transfected with the four genes using a retrovirus according to the method described by Takahashi, K. et al. in Cell, 131: 861-872 (2007); each compound was added per the schedule shown below. • 1. Oct3/4, Sox2, Klf4, c-Myc, each derived from human, saline • 2. Oct3/4, Sox2, Klf4, c-Myc, each derived from human, DMSO (Day 5-35) • 3. Oct3/4, Sox2, Klf4, c-Myc, each derived from human, SB202190 10 μM (Day 5-20) • 4. Oct3/4, Sox2, Klf4, c-Myc, each derived from human, SB239063 10 μM (Day 5-20) • 5. Oct3/4, Sox2, Klf4, c-Myc, each derived from human, SB202190 10 μM (Day 21-35) • 6. Oct3/4, Sox2, Klf4, c-Myc, each derived from human, SB239063 10 μM (Day 21-35) • 7. Oct3/4, Sox2, Klf4, c-Myc, each derived from human, SB202190 10 μM (Day 5-35) • 8. Oct3/4, Sox2, Klf4, c-Myc, each derived from human, SB239063 10 μM (Day 5-35) Subsequently, three genes (Oct3/4, Sox2, Klf4) were introduced using a retrovirus in the same manner, and the efficiency of iPS cell establishment was compared. • 1. Oct3/4, Sox2, Klf4, each derived from human, saline • 2. Oct3/4, Sox2, Klf4, each derived from human, DMSO (Day 5-35) • 3. […]

The test system of test [2] is Mouse embryonic fibroblasts (MEFs). The test is described as follows: iPS cell establishment from MEFs, 3 genes (Oct3/4, Sox2, Klf4) introduced, with p38 inhibitors. Conditions: 10 μM inhibitor, 2×10^4 cells/10 cm dish, FIG. 2. Type of test: cell-based. The procedure:
Three genes were introduced using a retrovirus by the same experimental procedures as the above. The cells were cultured at a cell density of 2×10^4 cells/10 cm dish, with the addition of 10 μM of SB202190, SB239063, or SB203580 (Calbiochem Company) to the medium per the schedule shown below, and the establishment efficiency was compared. • 1. Oct3/4, Sox2, Klf4, each derived from mouse, saline • 2. Oct3/4, Sox2, Klf4, each derived from mouse, DMSO • 3. Oct3/4, Sox2, Klf4, each derived from mouse, SB202190 10 μM (Day 1-4) • 4. Oct3/4, Sox2, Klf4, each derived from mouse, SB202190 10 μM (Day 1-8) • 5. Oct3/4, Sox2, Klf4, each derived from mouse, SB202190 10 μM (Day 9-16) • 6. Oct3/4, Sox2, Klf4, each derived from mouse, SB202190 10 μM (Day 1-16) • 7. Oct3/4, Sox2, Klf4, each derived from mouse, SB239063 10 μM (Day 1-4) • 8. Oct3/4, Sox2, Klf4, each derived from mouse, SB239063 10 μM (Day 1-8) • 9. Oct3/4, Sox2, Klf4, each derived from mouse, SB239063 10 μM (Day 9-16) • 10. Oct3/4, Sox2, Klf4, each derived from mouse, SB239063 10 μM (Day 1-16) • 11. Oct3/4, Sox2, Klf4, each derived from mouse, SB203580 10 μM (Day 1-4) • 12. Oct3/4, Sox2, Klf4, each derived from mouse, SB203580 10 μM (Day 1-8) • 13. Oct3/4, Sox2, Klf4, each derived from mouse, SB203580 10 μM (Day 9-16) • 14. Oct3/4, Sox2, Klf4, each derived from mouse, SB203580 10 μM (Day 1-16),

`Oc1ccc(-c2nc(-c3ccc(F)cc3)c(-c3ccncc3)[nH]2)cc1` [SB202190, 4-(4-fluorophenyl)-2-(4-hydroxyphenyl)-5-(4-pyridyl)imidazole]: in test [1], the “number of iPS cell colonies on day 40 after the infection compared with physiological saline and DMSO” value is listed as “increased remarkably”; the “number of positive colonies on day 32 after the infection compared with physiological saline and DMSO” value is listed as “increased”.
As for `COc1nccc(-c2c(-c3ccc(F)cc3)ncn2[C@H]2CC[C@H](O)CC2)n1` [SB239063, trans-1-(4-Hydroxycyclohexyl)-4-(4-fluorophenyl)-5-(2-methoxypyrimidin-4-yl)imidazole], in test [2], the “number of Nanog-GFP-positive colonies compared with physiological saline or DMSO” value is given as “increased” and the “total number of colonies compared with physiological saline or DMSO” value is “increased”.
